Results as given in ChEMBL document CHEMBL3046366, “Inhibitory effect of curcumin analogs on tissue factor procoagulant activity and their preliminary structureactivity relationships” (Med Chem Res, 2013).

How the values were obtained:
Tissue factor [1] = target: T1, Tissue factor (Homo sapiens, UniProt P13726); assay: Inhibition of tissue factor in Homo sapiens (human) THP1-cells using factor 10a chromogenic substrate assessed as inhibition of LPS-iduced procoagulant activity incubated for 1 hr prior to LPS-challenge measured after 5 hr by spectrophotometric analysis; format: cell-based; conditions: thp-1
[2] = Inhibition of tissue factor in Homo sapiens (human) THP1-cells using factor 10a chromogenic substrate assessed as inhibition of LPS-iduced procoagulant activity incubated for 1 hr prior to LPS-challenge measured after 5 hr by spectrophotometric analysis; conditions: thp-1
Tissue factor [3] = target: T1, Tissue factor; assay: Ratio of curcumin IC50 to compound IC50 for tissue factor in LPS-induced Homo sapiens (human) THP1 cells; format: cell-based; conditions: THP-1

T1 sequence (P13726 whole entry): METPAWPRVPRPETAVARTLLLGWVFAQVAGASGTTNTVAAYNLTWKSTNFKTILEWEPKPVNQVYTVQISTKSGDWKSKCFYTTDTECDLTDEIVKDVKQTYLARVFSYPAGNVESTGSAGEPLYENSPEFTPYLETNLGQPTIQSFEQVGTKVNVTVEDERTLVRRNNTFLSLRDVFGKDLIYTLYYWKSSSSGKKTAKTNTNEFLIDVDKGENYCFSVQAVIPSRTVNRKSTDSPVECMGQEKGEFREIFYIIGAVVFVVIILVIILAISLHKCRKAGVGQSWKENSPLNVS

## COc1ccc(/C=C/C(=O)/C=C/c2ccc(OC)cc2)cc1
Tissue factor [1]
  IC50: 13.4 nM

## COc1ccc(/C=C/C(=O)c2ccc(OC)cc2)cc1 [4,4'-DIMETHOXYCHALCONE]
Tissue factor [1]
  IC50: 15.4 nM

## COc1ccc(C(=O)/C=C/c2ccc(O)cc2)cc1
Tissue factor [1]
  IC50: 142 nM

## O=C(/C=C/c1ccc(O)cc1)/C=C/c1ccc(O)cc1
Tissue factor [1]
  IC50: 2.58 nM

## COc1ccc(/C=C2\CCC/C(=C\c3ccc(OC)cc3)C2=O)cc1
Tissue factor [1]
  IC50: > 200 nM

## COc1cc(/C=C2\CCC/C(=C\c3ccc(O)c(OC)c3)C2=O)ccc1O [CYCLOVALONE]
Tissue factor [1]
  IC50: > 200 nM

## COc1cc(/C=C/C(=O)/C=C/c2ccc(O)c(OC)c2)ccc1O
Tissue factor [1]
  IC50: > 200 nM

## COc1cc(/C=C/C(=O)CC(=O)/C=C/c2ccc(O)c(OC)c2)ccc1O [CURCUMIN]
[2]
  IC50: 200 nM

## O=C(/C=C/c1ccccc1)c1ccc(O)cc1 [4'-HYDROXYCHALCONE]
Tissue factor [3]
  Ratio IC50: 10000
Tissue factor [1]
  IC50: 0.12 nM

## O=C(/C=C/c1ccccc1)/C=C/c1ccccc1
Tissue factor [3]
  Ratio IC50: 10000
Tissue factor [1]
  IC50: 0.053 nM

## O=C1/C(=C/c2ccc(O)cc2)CCC/C1=C\c1ccc(O)cc1
Tissue factor [1]
  IC50: 0.94 nM

## O=C(/C=C/c1ccc(O)cc1)c1ccc(O)cc1 [4,4'-DIHYDROXYCHALCONE]
Tissue factor [1]
  IC50: 0.96 nM

## O=C1/C(=C/c2ccccc2)CCC/C1=C\c1ccccc1 [2,6-DIBENZYLIDENECYCLOHEXANONE]
Tissue factor [1]
  IC50: 0.26 nM
